# Assay: Solubility of AA in aniline
# Type: physicochemical
# Text: Aniline is a much better solvent for AA than dodecanol and, being also the product of the decarboxylation, its use presented great advantages compared to 1-dodecanol.
compound,measurement,setting,value
"Nc1ccccc1C(=O)O [oAB, 2-aminobenzoic acid]",AA that could be dissolved in aniline,50° C.,up to 40%
same,AA that could be dissolved in aniline,90° C.,up to 50%
same,AA that could be dissolved in aniline,room temperature (20° C.),up to 30%
